The record followed here is ChEMBL document CHEMBL1156558, “Improvement of the transactivation activity of phenylpropanoic acid-type peroxisome proliferator-activated receptor pan agonists: effect of introduction of fluorine at the linker part” (Bioorg Med Chem Lett, 2008).

SMILES strings stand for the structures.

What all share (assay type): functional, cell-based
Assay [1] addresses T1, Peroxisome proliferator-activated receptor alpha (Homo sapiens, UniProt Q07869).
T1 sequence (Q07869 whole entry): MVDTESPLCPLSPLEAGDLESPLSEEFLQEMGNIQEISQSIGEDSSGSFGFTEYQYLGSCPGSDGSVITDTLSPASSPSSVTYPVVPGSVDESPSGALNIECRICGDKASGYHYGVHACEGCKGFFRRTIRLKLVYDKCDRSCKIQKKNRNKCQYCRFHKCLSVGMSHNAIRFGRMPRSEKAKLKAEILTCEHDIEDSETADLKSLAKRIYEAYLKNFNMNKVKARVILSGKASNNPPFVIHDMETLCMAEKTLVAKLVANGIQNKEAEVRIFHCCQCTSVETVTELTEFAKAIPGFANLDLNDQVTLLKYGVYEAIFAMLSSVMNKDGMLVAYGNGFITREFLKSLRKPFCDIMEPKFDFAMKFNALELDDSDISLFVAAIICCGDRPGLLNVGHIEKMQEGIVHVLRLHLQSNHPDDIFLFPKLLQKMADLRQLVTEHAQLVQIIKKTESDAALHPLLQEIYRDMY
The assay can be described thus: Agonist activity at PPARalpha transfected in HEK293 cells by GAL4 transactivation assay.

Assay [2] has as its target T2, Peroxisome proliferator-activated receptor delta (Homo sapiens, UniProt Q03181).
T2 sequence (Q03181 whole entry): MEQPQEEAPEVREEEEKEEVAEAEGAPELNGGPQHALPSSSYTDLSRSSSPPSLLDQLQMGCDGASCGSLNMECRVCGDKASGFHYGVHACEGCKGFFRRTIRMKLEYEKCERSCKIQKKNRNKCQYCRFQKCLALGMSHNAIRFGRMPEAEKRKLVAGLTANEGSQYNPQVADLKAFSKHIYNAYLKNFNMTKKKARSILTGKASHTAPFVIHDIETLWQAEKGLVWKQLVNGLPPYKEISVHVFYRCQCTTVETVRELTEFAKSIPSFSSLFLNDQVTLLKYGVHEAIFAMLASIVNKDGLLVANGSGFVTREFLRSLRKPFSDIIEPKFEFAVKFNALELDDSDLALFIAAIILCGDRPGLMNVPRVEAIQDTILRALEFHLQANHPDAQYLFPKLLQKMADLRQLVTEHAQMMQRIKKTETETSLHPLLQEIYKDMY
The assay can be described thus: Agonist activity at PPARdelta transfected in HEK293 cells by GAL4 transactivation assay.

The target in assay [3] is T3, Peroxisome proliferator-activated receptor gamma (Homo sapiens, UniProt P37231).
T3 sequence (P37231 whole entry): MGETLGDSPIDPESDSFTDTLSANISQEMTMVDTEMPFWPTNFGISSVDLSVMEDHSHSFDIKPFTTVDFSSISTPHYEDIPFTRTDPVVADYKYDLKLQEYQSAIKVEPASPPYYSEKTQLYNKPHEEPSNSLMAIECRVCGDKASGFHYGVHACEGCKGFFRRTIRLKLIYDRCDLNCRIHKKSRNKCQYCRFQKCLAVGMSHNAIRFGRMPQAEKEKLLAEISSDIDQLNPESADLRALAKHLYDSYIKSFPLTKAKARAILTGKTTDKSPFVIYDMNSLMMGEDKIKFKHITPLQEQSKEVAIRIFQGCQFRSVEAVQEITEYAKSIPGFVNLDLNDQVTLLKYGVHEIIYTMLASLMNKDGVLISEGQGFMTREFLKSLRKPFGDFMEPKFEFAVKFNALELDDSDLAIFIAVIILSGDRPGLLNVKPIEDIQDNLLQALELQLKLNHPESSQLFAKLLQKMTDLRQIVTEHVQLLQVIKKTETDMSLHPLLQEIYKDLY
Nature of the assay: Agonist activity at PPARgamma transfected in HEK293 cells by GAL4 transactivation assay.

In turn, `CCCOc1ccc(C[C@H](CC)C(=O)O)cc1CNC(=O)c1ccc(C23CC4CC(CC(C4)C2)C3)cc1` returned a half-maximal effective concentration (EC50) in assay [1] of 58 nM.
Take `CCCOc1cc(F)c(C[C@@H](CC)C(=O)O)cc1CNC(=O)c1ccc(C23CC4CC(CC(C4)C2)C3)cc1F`: the EC50 in assay [1] came to 200 nM; in assay [2] it was 180 nM; in assay [3], 160 nM.
As to `CCCOc1cc(F)c(C[C@H](CC)C(=O)O)cc1CNC(=O)c1ccc(C23CC4CC(CC(C4)C2)C3)cc1F`, the results for the EC50 in assay [1], in assay [2] and in assay [3] were 12 nM, 25 nM and 38 nM, respectively.
As to `CCC(Cc1ccc(OC)c(CNC(=O)c2ccc(C(F)(F)F)cc2F)c1)C(=O)O` (racemic), the EC50 in assay [1] was determined as 7.9 nM; in assay [2], 29 nM; in assay [3], 2600 nM.
On to `CCC(Cc1ccc(OC)c(CNC(=O)c2ccc(C34CC5CC(CC(C5)C3)C4)cc2)c1)C(=O)O` (racemic), for which the EC50 in assay [1] turned out to be 53 nM; in assay [2] it was 940 nM; in assay [3] it was 110 nM.
On to `CCC(Cc1cc(F)c(OC)c(CNC(=O)c2ccc(C(F)(F)F)cc2)c1)C(=O)O` (racemic), for which the EC50 in assay [1] is 54 nM; in assay [2], 59 nM; in assay [3], greater than 10000 nM.
For the molecule `CCC(Cc1ccc(OC)c(CNC(=O)c2ccc(C34CC5CC(CC(C5)C3)C4)cc2F)c1)C(=O)O` (racemic), the EC50 in assay [1] is 60 nM; in assay [2], 550 nM; in assay [3], 140 nM.
The matching figures for `CCC(Cc1cc(F)c(OC)c(CNC(=O)c2ccc(C34CC5CC(CC(C5)C3)C4)cc2)c1)C(=O)O` (racemic): 260 nM, 2200 nM and 190 nM.
On to `CCC(Cc1cc(CNC(=O)c2ccc(C34CC5CC(CC(C5)C3)C4)cc2)c(OC)cc1F)C(=O)O` (racemic), for which the figures for the EC50 in assay [1], in assay [2] and in assay [3] were 13 nM, 280 nM and 36 nM, respectively.
Take `CCOc1cc(F)c(CC(CC)C(=O)O)cc1CNC(=O)c1ccc(C23CC4CC(CC(C4)C2)C3)cc1` (racemic): the EC50 in assay [1] was 7.1 nM; in assay [2] it was 94 nM; in assay [3] it was 24 nM.
Regarding `CCOc1cc(F)c(CC(CC)C(=O)O)cc1CNC(=O)c1ccc(C23CC4CC(CC(C4)C2)C3)cc1F` (racemic), the EC50 in assay [1] turned out to be 7.5 nM; in assay [2], 55 nM; in assay [3], 22 nM.
For the molecule `CCCOc1cc(F)c(CC(CC)C(=O)O)cc1CNC(=O)c1ccc(C23CC4CC(CC(C4)C2)C3)cc1F` (racemic), the EC50 in assay [1] turned out to be 13 nM; in assay [2], 28 nM; in assay [3], 35 nM.
Take `CCC(Cc1cc(CNC(=O)c2ccc(C(F)(F)F)cc2)c(OC)cc1F)C(=O)O` (racemic): the results for the EC50 in assay [1], in assay [2] and in assay [3] were 3.6 nM, 20 nM and 1100 nM, respectively.
For `CCCOc1cc(F)c(CC(CC)C(=O)O)cc1CNC(=O)c1ccc(C23CC4CC(CC(C4)C2)C3)cc1` (racemic), in that order: 17 nM, 60 nM and 15 nM.
